pIC50: −log10 of the molar value.
Experiments:
Menin/MLL = molecular target: T1, Menin/MLL (Homo sapiens, UniProt O00255, T541A); experiment: Menin/MLL homogenous time-resolved fluorescence (HTRF) assay; assay type: binding; settings: 30 min incubation of test compound with terbium chelate-labeled menin; FITC-MBM1 peptide
T1 construct: Menin (a.a 1-610-6xhis tag)
T1 sequence (O00255 with tags, fused parts or gaps T541A): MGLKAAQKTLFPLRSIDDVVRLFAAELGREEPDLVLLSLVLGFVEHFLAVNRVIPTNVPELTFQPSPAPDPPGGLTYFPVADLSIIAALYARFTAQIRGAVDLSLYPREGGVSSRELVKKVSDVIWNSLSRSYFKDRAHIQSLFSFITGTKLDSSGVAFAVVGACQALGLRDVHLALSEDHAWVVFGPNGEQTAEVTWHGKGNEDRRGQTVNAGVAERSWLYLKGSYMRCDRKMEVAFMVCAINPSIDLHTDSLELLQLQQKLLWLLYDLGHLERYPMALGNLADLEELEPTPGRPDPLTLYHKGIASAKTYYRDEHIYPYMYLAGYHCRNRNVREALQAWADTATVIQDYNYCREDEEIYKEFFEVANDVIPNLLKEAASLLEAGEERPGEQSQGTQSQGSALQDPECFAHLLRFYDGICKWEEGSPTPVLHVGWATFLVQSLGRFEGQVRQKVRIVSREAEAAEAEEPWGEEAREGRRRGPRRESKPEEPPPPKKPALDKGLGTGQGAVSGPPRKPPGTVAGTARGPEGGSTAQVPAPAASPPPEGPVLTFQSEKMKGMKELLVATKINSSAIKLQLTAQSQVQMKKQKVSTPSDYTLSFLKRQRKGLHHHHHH
Description: 1) Menin/MLL homogenous time-resolved fluorescence (HTRF) assay
To an untreated, white 384-well microtiter plate was added 40 nL 200X test compound in DMSO and 4 μL 2X terbium chelate-labeled menin (vide infra for preparation) in assay buffer (40 mM Tris-HCl, pH 7.5, 50 mM NaCl, 1 mM DTT (dithiothreitol) and 0.05% Pluronic F-127). After incubation of test compound and terbium chelate-labeled menin for 30 min at ambient temperature, 4 μL 2X FITC-MBM1 peptide (FITC-β-alanine-SARWRFPARPGT-NH2 (SEQ ID NO: 2)) (“FITC” means fluorescein isothiocyanate) in assay buffer was added, the microtiter plate centrifuged at 1000 rpm for 1 min and the assay mixtures incubated for 15 min at ambient temperature. The relative amount of menin FITC--MBM1 complex present in an assay mixture is determined by measuring the homogenous time-resolved fluorescence (HTRF) of the terbium/FITC donor/acceptor fluorphore pair using an EnVision microplate reader (ex. 337 nm/terbium em. 490 nm/FITC em. 520 nm) at ambient temperature. The degree of fluorescence resonance energy transfer (the HTRF value) is expressed as the ratio of the fluorescence emission intensities of the FITC and terbium fluorophores (F^em 520 nm/F^em 490 nm). The final concentrations of reagents in the binding assay are 200 pM terbium chelate-labeled menin, 75 nM FITC-MBM1 peptide and 0.5% DMSO in assay buffer. Dose-response titrations of test compounds are conducted using an 11 point, four-fold serial dilution scheme, starting typically at 10 μM.
Compound potencies were determined by first calculating % inhibition at each compound concentration according to equation 1: […]
Where LC and HC are the HTRF values of the assay in the presence or absence of a saturating concentration of a compound that competes with FITC-MBM1 for binding to menin, and HTRF^compound is the measured HTRF value in the presence of the test compound. HC and LC HTRF values represent an average of at least 10 replicates per plate.
Where Bottom and Top are the lower and upper asymptotes of the dose-response curve, respectively, IC50 is the concentration of compound that yields 50% inhibition of signal and h is the Hill coefficient. IC50 values below 0.1 nM in the HTRF assay were reported as 0.1 nM in the Table below (detection limit).
Preparation of Terbium cryptate labeling of Menin: Menin (a.a 1-610-6xhis tag, 2.3 mg/mL in 20 mM Hepes (2-[4-(2-Hydroxyethyl)-1-piperazinyl]ethane sulfonic acid), 80 mM NaCl, 5 mM DTT (Dithiothreitol), pH 7.5) was labeled with terbium cryptate as follows. 200 μg of Menin was buffer exchanged into lx Hepes buffer. 6.67 μM Menin was incubated with 8-fold molar excess NHS (N-hydroxysuccinimide)-terbium cryptate for 40 minutes at room temperature. Half of the labeled protein was purified away from free label by running the reaction over a NAP5 column with elution buffer (0.1M Hepes, pH 7+0.1% BSA (bovine serum albumin)). The other half was eluted with 0.1 M phosphate buffered saline (PBS), pH7. 400 μl of eluent was collected for each, aliquoted and frozen at −80° C. The final concentration of terbium-labeled Menin protein was 115 μg/mL in Hepes buffer and 85 μg/mL in PBS buffer, respectively.

MOLM14 cells = experiment: Proliferation assay (spheroid assay) in MOLM14; assay type: cell-based; settings: Homo sapiens, MOLM-14, 192 h; MOLM14 (MLL-AF9), 8 days, confluence as measure of spheroid size; read-out: spheroid assay_OneTime MOLM14 IC50
Description: (§1) The anti-proliferative effect of menin/MLL protein/protein interaction inhibitor test compounds was assessed in human leukemia cell lines. The cell line MOLM14 harbors a MLL translocation and expresses the MLL fusion proteins MLL-AF9, respectively, as well as the wildtype protein from the second allele. […] KO-52 was used as a control cell line containing two MLL (KMT2A) wildtype alleles in order to exclude compounds that display general cytotoxic effects.
MOLM14 cells were cultured in RPMI-1640 (Sigma Aldrich) supplemented with 10% heat-inactivated fetal bovine serum (HyClone), 2 mM L-glutamine (Sigma Aldrich) and 50 µg/ml gentamycin (Gibco). KO-52 cell lines were propagated in alpha-MEM (Sigma Aldrich) supplemented with 20% heat-inactivated fetal bovine serum (HyClone), 2 mM L-glutamine (Sigma Aldrich) and 50 µg/ml gentamycin (Gibco).
In order to assess the anti-proliferative effects, 200 MOLM14 cells, or 300 KO-52 cells were seeded in 200 μl media per well in 96-well round bottom, ultra-low attachment plates (Costar, catalogue number 7007). Cell seeding numbers were chosen based on growth curves to ensure linear growth throughout the experiment. Test compounds were added at different concentrations and the DMSO content was normalized to 0.3%. Cells were incubated for 8 days at 37° C. and 5% CO2. Spheroid like growth was measured in real-time by live-cell imaging (IncuCyteZOOM, Essenbio, 4× objective) acquiring images at day 8. Confluence (%) as a measure of spheroid size was determined using an integrated analysis tool.
In order to determine the effect of the test compounds over time, the confluence in each well as a measure of spheroid size, was calculated. Confluence of the highest dose of a reference compound was used as baseline for the LC (Low control) and the confluence of DMSO treated cells was used as 0% cytotoxicity (High Control, HC).
Absolute IC50 values were calculated as percent change in confluence as follows:
LC=Low Control: cells treated with e.g. 1 μM of the cytotoxic agent staurosporin, or e.g. cells treated with a high concentration of an alternative reference compound
GraphPad Prism (version 7.00) was used to calculate the IC50. Dose-response equation was used for the plot of % Effect vs Log10 compound concentration with a variable slope and fixing the maximum to 100% and the minimum to 0%.

KO-52 cells = experiment: Proliferation assay (spheroid assay) in KO-52 control cell line; assay type: cell-based; settings: Homo sapiens, 192 h; KO-52 (MLL wildtype control), 8 days, confluence as measure of spheroid size; read-out: spheroid assay_OneTime KO-52 IC50
Description: as §1
MOLM14 cells were cultured in RPMI-1640 (Sigma Aldrich) supplemented with 10% heat-inactivated fetal bovine serum (HyClone), 2 mM L-glutamine (Sigma Aldrich) and 50 µg/ml gentamycin (Gibco). […]
In order to assess the anti-proliferative effects, 200 MOLM14 cells, or 300 KO-52 cells were seeded in 200 μl media per well in 96-well round bottom, ultra-low attachment plates (Costar, catalogue number 7007). […] Spheroid like growth was measured in real-time by live-cell imaging (IncuCyteZOOM, Essenbio, 4× objective) acquiring images at day 8. Confluence (%) as a measure of spheroid size was determined using an integrated analysis tool.
In order to determine the effect of the test compounds over time, the confluence in each well as a measure of spheroid size, was calculated. […]
Absolute IC50 values were calculated as percent change in confluence as follows: […]

`CCN(C(=O)c1cc(F)ccc1Oc1nncnc1N1CCC2(C1)CN(C(CCCN(C)CCOC(F)(F)F)C(C)C)C2)C(C)C` (single isomer, unassigned) [Compound 2] showed a pIC50 (Menin/MLL) of 9.42, a pIC50 (MOLM14 cells) of 7.70 and a pIC50 (KO-52 cells) of 4.84.

Reference: patent US20250333421A1, “PYRIDAZINES OR 1,2,4-TRIAZINES SUBSTITUTED BY SPIROCYCLIC AMINES” (Janssen Pharmaceutica NV, priority 2021, published 2025)
